This passage reports EC50 results from patent US12404289B2 (Gilead Sciences, Inc., priority 2020, dated 2025).

Holding throughout (type): cell-based
Experiment [1] has as its system Respiratory syncytial virus (RSV) strain A2. Nature of the experiment: RSV antiviral assay (HEp-2, 96 well). Conditions: Table 3.
In experiment [2] the test system is Recombinant respiratory syncytial virus expressing the firefly luciferase protein (RSV-Fluc). The experiment in a line: microbe, parasite or virus in culture. The conditions noted are these: Table 4.
A further experiment relates to SARS-CoV-2. The experiment in a line: SARS-CoV-2 antiviral assay (A549-hACE2, Nano luciferase). The conditions noted are these: A549-hACE2 cells, SARS-CoV2-Nano, MOI 0.025, 48 h, Table 4, read-out: EC50 SARS CoV2.
Experiment [3] concerns Respiratory syncytial virus (RSV) strain A2. Nature of the experiment: Hep-2 RSV2 384-well assay (EC50-HEP2-384). The conditions noted are these: HEp-2 cells, RSV A2, MOI=4, 4 days.
Where [4] appears, read: human respiratory syncytial virus, HEp-2, 96 h, read-out: EC50 RSV HEP2 96, HEp-2 cells, RSV A2, MOI=4, 4 days, 96 well.
Setting [5] is: human respiratory syncytial virus, NHBE, 72 h, read-out: EC50 RSVFluc NHBE 96, NHBE cells, RSV-Fluc, MOI of 0.1, three days, 96 well.
Where [6] appears, read: Severe acute respiratory syndrome coronavirus 2, 48 h.
Where [7] appears, read: read-out: EC50 RSV HEP2 96, HEp-2 cells, RSV A2, MOI=4, 4 days, 96 well.
Setting [8] is: read-out: EC50 RSVFluc NHBE 96, NHBE cells, RSV-Fluc, MOI of 0.1, three days, 96 well.
[9] abbreviates: human respiratory syncytial virus, HEp-2, 96 h, Table 3.

The structures appear in SMILES notation. Where two headings read alike, the source gives them in different places.

What is called EC50 is the midpoint of the concentration-response curve. With `CC(C)C(=O)O[C@H]1[C@@H](OC(=O)C(C)C)[C@](C#N)(c2ccc3c(N)ncnn23)O[C@@H]1COP(=O)(N[C@@H](C)C(=O)OCC1CCC1)Oc1ccccc1` (stereo partly drawn) [Example 117, (2R,3R,4R,5R)-2-(4-aminopyrrolo[2,1-f][1,2,4]triazin-7-yl)-2-cyano-5-((((((S)-1-(cyclobutylmethoxy)-1-oxopropan-2-yl)amino)(phenoxy)phosphoryl)oxy)methyl)tetrahydrofuran-3,4-diyl bis(2-methylpropanoate)], the EC50 in experiment [1] (setting [4]) was determined as 11 nM; in experiment [2] (setting [5]), 22.1 nM; in the experiment on SARS-CoV-2 (setting [6]), 192 nM.

As for `CC(C)C(=O)O[C@H]1[C@@H](OC(=O)C(C)C)[C@](C#N)(c2ccc3c(N)ncnn23)O[C@@H]1COP(=O)(N[C@@H](C)C(=O)OC1CCC1)Oc1cccc2ccccc12` (single isomer, unassigned) [Example 55b], the EC50 in experiment [1] (setting [7]) is 7.44 nM; in experiment [2] (setting [8]), 6.12 nM; in the experiment with SARS-CoV-2, 108 nM.

For the compound `CC(C)C(=O)O[C@H]1[C@@H](OC(=O)C(C)C)[C@](C#N)(c2ccc3c(N)ncnn23)O[C@@H]1COP(=O)(N[C@@H](C)C(=O)OC1CCC1)Oc1ccc(C(C)(C)C)cc1` (single isomer, unassigned) [Example 50b], the EC50 stood at 8.52 nM in experiment [1] (setting [7]), 5.36 nM in experiment [2] (setting [8]) and 239 nM with SARS-CoV-2.

`CC(C)C(=O)O[C@H]1[C@@H](OC(=O)C(C)C)[C@](C#N)(c2ccc3c(N)ncnn23)O[C@@H]1COP(=O)(N[C@@H](C)C(=O)OC1CCOCC1)Oc1ccc(C(C)(C)C)cc1` (stereo partly drawn) [Example 90, [(2R,3R,4R,5R)-5-(4-aminopyrrolo[2,1-f][1,2,4]triazin-7-yl)-2-[[(4-tert-butylphenoxy)-[[(1S)-1-methyl-2-oxo-2-tetrahydropyran-4-yloxy-ethyl]amino]phosphoryl]oxymethyl]-5-cyano-4-(2-methylpropanoyloxy)tetrahydrofuran-3-yl] 2-methylpropanoate]: the results for the EC50 in experiment [1] (setting [4]) and in experiment [3] (setting [9]) were 20.4 nM and 124 nM, respectively.

For the compound `C[C@H](NP(=O)(OC[C@H]1O[C@@](C#N)(c2ccc3c(N)ncnn23)[C@H](O)[C@@H]1O)Oc1ccc(C(C)(C)C)cc1)C(=O)OC1CC(C)(C)C1` (stereo partly drawn) [Example 93, 3,3-dimethylcyclobutyl ((((2R,3S,4R,5R)-5-(4-aminopyrrolo[2,1-f][1,2,4]triazin-7-yl)-5-cyano-3,4-dihydroxytetrahydrofuran-2-yl)methoxy)(4-(tert-butyl)phenoxy)phosphoryl)-L-alaninate], the EC50 in experiment [2] (setting [5]) was 4.43 nM; with SARS-CoV-2 (setting [6]), 123 nM; in experiment [3] (setting [9]), 67.6 nM.

For `CC(C)C(=O)O[C@H]1[C@@H](OC(=O)C(C)C)[C@](C#N)(c2ccc3c(N)ncnn23)O[C@@H]1COP(=O)(N[C@@H](C)C(=O)OC1CCC1)Oc1ccccc1` (single isomer, unassigned) [Example 21a], the EC50 in experiment [2] (setting [8]) was 37.4 nM; with SARS-CoV-2, 125 nM; in experiment [3] (Table 1), 92 nM.

Turning to `CCC(CC)COC(=O)[C@H](C)NP(=O)(OC[C@H]1O[C@@](C#N)(c2ccc3c(N)ncnn23)[C@H](O)[C@@H]1O)Oc1ccc2ccccc2c1` (stereo partly drawn) [Intermediate S3, 2-ethylbutyl ((((2R,3S,4R,5R)-5-(4-aminopyrrolo[2,1-f][1,2,4]triazin-7-yl)-5-cyano-3,4-dihydroxytetrahydrofuran-2-yl)methoxy)(naphthalen-2-yloxy)phosphoryl)-L-alaninate], the EC50 worked out at 5.51 nM in experiment [2] (setting [5]) and 113 nM with SARS-CoV-2 (setting [6]).

Regarding `CC(C)C(=O)O[C@H]1[C@@H](OC(=O)C(C)C)[C@](C#N)(c2ccc3c(N)ncnn23)O[C@@H]1COP(=O)(N[C@@H](C)C(=O)OC1CCC1)Oc1ccc(C2CC2)cc1` (some centres unmarked) [Example 52a], the EC50 in experiment [1] (setting [4]) amounted to 20.5 nM; in experiment [2] (setting [5]), 20.8 nM; in the experiment with SARS-CoV-2 (setting [6]) it was 64.5 nM.

As to `CC(=O)O[C@H]1[C@@H](OC(C)=O)[C@](C#N)(c2ccc3c(N)ncnn23)O[C@@H]1COP(=O)(N[C@@H](C)C(=O)OC1CC2(CCC2)C1)Oc1ccc(C(C)(C)C)cc1` (stereo partly drawn) [Example 80, Spiro[3.3]heptan-2-yl (2S)-2-[[(4-tert-butylphenoxy)-[[(2R,3R,4R,5R)-3,4-diacetoxy-5-(4-aminopyrrolo[2,1-f][1,2,4]triazin-7-yl)-5-cyano-tetrahydrofuran-2-yl]methoxy]phosphoryl]amino]propanoate], the EC50 in experiment [1] (setting [4]) stood at 16.9 nM; in experiment [2] (setting [8]), 16.5 nM; with SARS-CoV-2, 310 nM.

On to `COC(C)(C)COC(=O)[C@H](C)NP(=O)(OC[C@H]1O[C@@](C#N)(c2ccc3c(N)ncnn23)[C@H](OC(=O)C(C)C)[C@@H]1OC(=O)C(C)C)Oc1ccc(C(C)(C)C)cc1` (stereo partly drawn) [Example 116, (2R,3R,4R,5R)-2-(4-aminopyrrolo[2,1-f][1,2,4]triazin-7-yl)-5-((((4-(tert-butyl)phenoxy)(((S)-1-(2-methoxy-2-methylpropoxy)-1-oxopropan-2-yl)amino)phosphoryl)oxy)methyl)-2-cyanotetrahydrofuran-3,4-diyl bis(2-methylpropanoate)], for which the EC50 in experiment [1] (setting [4]) came out at 11.2 nM; in experiment [2] (setting [5]), 25 nM; in the experiment on SARS-CoV-2 (setting [6]), 56 nM.

For `CC(C)C(=O)O[C@H]1[C@@H](OC(=O)C(C)C)[C@](C#N)(c2ccc3c(N)ncnn23)O[C@@H]1COP(=O)(N[C@@H](C)C(=O)OC1CCC1)Oc1ccc(C(C)(C)C)cc1` (single isomer, unassigned) [Example 50a], the EC50 was 21.3 nM in experiment [1] (setting [7]), 27.5 nM in experiment [2] (setting [8]) and 38.8 nM with SARS-CoV-2.

As for `CC(C)C(=O)O[C@H]1[C@@H](OC(=O)C(C)C)[C@](C#N)(c2ccc3c(N)ncnn23)O[C@@H]1COP(=O)(N[C@@H](C)C(=O)OC1CCC1)Oc1cccc2ccccc12` (single isomer, unassigned) [Example 55a], the EC50 in experiment [1] (setting [4]) worked out at 7.09 nM; in experiment [2] (setting [8]) it was 19.9 nM; with SARS-CoV-2 (setting [6]), 104 nM.

On to `CCC(CC)COC(=O)[C@H](C)NP(=O)(OC[C@H]1O[C@@](C#N)(c2ccc3c(N)ncnn23)[C@H](O)[C@@H]1O)Oc1ccc2ccccc2c1` (single isomer, unassigned) [Intermediate S3-b], for which the EC50 was 18.8 nM in experiment [1] (setting [7]) and 68 nM in experiment [3] (setting [9]).

Regarding `CCOC(=O)[C@H](C)NP(=O)(OC[C@H]1O[C@@](C#N)(c2ccc3c(N)ncnn23)[C@H](OC(=O)C(C)C)[C@@H]1OC(=O)C(C)C)Oc1cccc2ccccc12` (stereo partly drawn) [Example 67, [(2R,3R,4R,5R)-5-(4-aminopyrrolo[2,1-f][1,2,4]triazin-7-yl)-5-cyano-2-[[[[(1S)-2-ethoxy-1-methyl-2-oxo-ethyl]amino]-(1-naphthyloxy)phosphoryl]oxymethyl]-4-(2-methylpropanoyloxy)tetrahydrofuran-3-yl] 2-methylpropanoate], the values for the EC50 (in experiment [1] (setting [4]); in experiment [2] (setting [5]); with SARS-CoV-2 (setting [6])) were 18 nM, 8.72 nM and 27.2 nM, respectively.

In the case of `C[C@H](NP(=O)(OC[C@H]1O[C@@](C#N)(c2ccc3c(N)ncnn23)[C@H](O)[C@@H]1O)Oc1ccc(C(C)(C)C)cc1)C(=O)OCCC(C)(C)C` (stereo partly drawn) [Example 61, 3,3-dimethylbutyl (2S)-2-[[[(2R,3S,4R,5R)-5-(4-aminopyrrolo[2,1-f][1,2,4]triazin-7-yl)-5-cyano-3,4-dihydroxy-tetrahydrofuran-2-yl]methoxy-(4-tert-butylphenoxy)phosphoryl]amino]propanoate], the results for the EC50 in experiment [1] (setting [4]) and in experiment [3] (setting [9]) were 36.7 nM and 72.4 nM, respectively.

`CC(C)COC(=O)[C@H](C)NP(=O)(OC[C@H]1O[C@@](C#N)(c2ccc3c(N)ncnn23)[C@H](OC(=O)C(C)C)[C@@H]1OC(=O)C(C)C)Oc1ccc(C(C)(C)C)cc1` (stereo partly drawn) [Example 122, (2R,3R,4R,5R)-2-(4-aminopyrrolo[2,1-f][1,2,4]triazin-7-yl)-5-((((4-(tert-butyl)phenoxy)(((S)-1-isobutoxy-1-oxopropan-2-yl)amino)phosphoryl)oxy)methyl)-2-cyanotetrahydrofuran-3,4-diyl bis(2-methylpropanoate)]: the EC50 was 16.4 nM in experiment [1] (setting [4]), 8.73 nM in experiment [2] (setting [5]) and 167 nM in the experiment on SARS-CoV-2 (setting [6]).

For `C[C@H](NP(=O)(OC[C@H]1O[C@@](C#N)(c2ccc3c(N)ncnn23)[C@H](O)[C@@H]1O)Oc1ccc(C(C)(C)C)cc1)C(=O)OC1CC2(CCC2)C1` (stereo partly drawn) [Example 65, spiro[3.3]heptan-2-yl (2S)-2-[[[(2R,3S,4R,5R)-5-(4-aminopyrrolo[2,1-f][1,2,4]triazin-7-yl)-5-cyano-3,4-dihydroxy-tetrahydrofuran-2-yl]methoxy-(4-tert-butylphenoxy)phosphoryl]amino]propanoate], the EC50 is 336 nM in experiment [1] (setting [4]), 3.24 nM in experiment [2] (setting [8]) and 265 nM in the experiment on SARS-CoV-2.

With `CCC(C)(C)COC(=O)[C@H](C)NP(=O)(OC[C@H]1O[C@@](C#N)(c2ccc3c(N)ncnn23)[C@H](OC(=O)C(C)C)[C@@H]1OC(=O)C(C)C)Oc1ccc(C(C)(C)C)cc1` (stereo partly drawn) [Example 126, (2R,3R,4R,5R)-2-(4-aminopyrrolo[2,1-f][1,2,4]triazin-7-yl)-5-((((4-(tert-butyl)phenoxy)(((S)-1-(2,2-dimethylbutoxy)-1-oxopropan-2-yl)amino)phosphoryl)oxy)methyl)-2-cyanotetrahydrofuran-3,4-diyl bis(2-methylpropanoate)], the EC50 in experiment [1] (setting [4]) turned out to be 17 nM; in the experiment with SARS-CoV-2 (setting [6]) it was 77.4 nM; in experiment [3] (setting [9]) it was 116 nM.
